Laboratory results as given in patent US5824698A, “Antibacterial dibenzimidazole derivatives” (priority 1994, dated 1998).
Converted amounts (≈) assume the structure as drawn. Read-outs that look alike come from different tables or passages of the source.

What was measured:
Assay in all cases: Antibacterial activity in vitro (MIC, standard agar method)
Assay type in all cases: cell-based
[1] = test system: B. subtilis ATCC 585369; settings: Bacillus subtilis, ATCC585369, DST agar, 35° C., 20 hours, read-out: Minimum inhibitory concentration (MIC)
Experimental: (§1) The minimum inhibitory concentration (MIC) of the substances investigated against gram-positive and gram-negative strains was determined using standard agar methods. The compounds were dissolved in a small amount of dimethyl sulphoxide, diluted with water and incorporated into liquified DST agar at 50° C. The thus-produced agar plates were used immediately thereafter in the test. The test concentrations lay between 128 and 0.06 μg/ml. The bacterial inoculation solutions were prepared from pre-cultures grown overnight, diluted and applied to the agar surface using an inoculation device (Denley A400). The plates were incubated at 35° C. for 20 hours. The MIC was determined as the lowest concentration of substance which prevented a visible growth. A scarcely visible turbidity and the growth of less than 5 colonies were ignored. The determinations of the antibacterial activities (Tab. 1) were carried out not only for the free bases, but also for the hydrochloride salt of each compound. The same values were obtained within experimental error.

[2] = test system: E. cloacae P 99; settings: Enterobacter cloacae, P99, 20 h, read-out: Minimum inhibitory concentration (MIC)
Experimental: as §1

[3] = test system: E. coli 1346; settings: Escherichia coli, DST agar, 35° C., 20 hours, read-out: Minimum inhibitory concentration (MIC)
Experimental: as §1

[4] = test system: E. coli 1527 E; settings: Escherichia coli, read-out: Minimum inhibitory concentration (MIC)
Experimental: as §1

[5] = test system: E. coli 25922; settings: read-out: Minimum inhibitory concentration (MIC)
Experimental: as §1

[6] = test system: E. coli AS-19; settings: Escherichia coli, AS19, DST agar, 35° C., 20 hours, read-out: Minimum inhibitory concentration (MIC)
Experimental: as §1

[7] = test system: E. coli B; settings: Escherichia coli, DST agar, 35° C., 20 hours, read-out: Minimum inhibitory concentration (MIC)
Experimental: as §1

[8] = test system: E. coli DC2; settings: Escherichia coli, read-out: Minimum inhibitory concentration (MIC)
Experimental: as §1

[9] = test system: E. coli H560; settings: Escherichia coli, H560, 20 h, read-out: Minimum inhibitory concentration (MIC)
Experimental: as §1

[10] = test system: E. coli K12 KEA-12 (GyrA); settings: Escherichia coli, 20 h, read-out: Minimum inhibitory concentration (MIC)
Experimental: as §1

[11] = test system: E. faecalis 6; settings: read-out: Minimum inhibitory concentration (MIC)
Experimental: as §1

[12] = test system: K. oxytoca 1082E; settings: Klebsiella oxytoca, DST agar, 35° C., 20 hours, read-out: Minimum inhibitory concentration (MIC)
Experimental: as §1

[13] = test system: P. aeroginosa BA; settings: DST agar, 35° C., 20 hours, read-out: Minimum inhibitory concentration (MIC)
Experimental: as §1

[14] = test system: P. aeroguinosa 3351; settings: read-out: Minimum inhibitory concentration (MIC)
Experimental: as §1

[15] = test system: P. aeruginosa 799/61; settings: Pseudomonas aeruginosa, 799/61, 20 h, read-out: Minimum inhibitory concentration (MIC)
Experimental: as §1

[16] = test system: S. marcescens; settings: Serratia marcescens, 20 h, read-out: Minimum inhibitory concentration (MIC)
Experimental: as §1

[17] = test system: Staph. aureus 25923; settings: Staphylococcus aureus, DST agar, 35° C., 20 hours, read-out: Minimum inhibitory concentration (MIC)
Experimental: as §1

[18] = test system: Staph. aureus 887; settings: Staphylococcus aureus, DST agar, 35° C., 20 hours, read-out: Minimum inhibitory concentration (MIC)
Experimental: as §1

[19] = test system: Staph. haemolyticus 75; settings: Staphylococcus haemolyticus, DST agar, 35° C., 20 hours, read-out: Minimum inhibitory concentration (MIC)
Experimental: as §1

[20] = test system: E. coli 159 R; settings: Escherichia coli, 159R, 20 h, read-out: Minimum inhibitory concentration (MIC)
Experimental: as §1

[21] = test system: S. aureus 101; settings: Staphylococcus aureus, DST agar, 35° C., 20 hours, read-out: Minimum inhibitory concentration (MIC)
Experimental: as §1

[22] = test system: S. aureus 853; settings: Staphylococcus aureus, DST agar, 35° C., 20 hours, read-out: Minimum inhibitory concentration (MIC)
Experimental: as §1

[23] = Escherichia coli, E. coli 25922, DST agar, 35° C., 20 hours
[24] = E. coli DC2, DST agar, 35° C., 20 hours
[25] = Enterococcus faecalis, E. faecalis 6, DST agar, 35° C., 20 hours

## Nc1ccc(-c2nc3ccc(-c4ccc5nc(-c6ccc(N)cc6)[nH]c5c4)cc3[nH]2)cc1 [Example 7, 4-[2'-(4-Amino-phenyl)-6,6'-dibenzimidazol-2-yl]-phenylamine]
[1]
  MIC: 2 µg/mL (≈ 4.8 µM)
[2]
  MIC: > 128 µg/mL
[3]
  MIC: ≤ 0.12 µg/mL
[4]; 1527E, 20 h
  MIC: > 128 µg/mL
[5]; [23]
  MIC: > 128 µg/mL
[6]
  MIC: 4 µg/mL (≈ 9.6 µM)
[7]
  MIC: 0.25 µg/mL (≈ 0.6 µM)
[8]; [24]
  MIC: ≤ 0.12 µg/mL
[9]
  MIC: > 128 µg/mL
[10]
  MIC: > 128 µg/mL
[11]; [25]
  MIC: ≤ 0.12 µg/mL
[12]
  MIC: > 128 µg/mL
[13]
  MIC: > 128 µg/mL
[14]; 20 h
  MIC: > 128 µg/mL
[15]
  MIC: > 128 µg/mL
[16]
  MIC: > 128 µg/mL
[17]
  MIC: 1 µg/mL (≈ 2.4 µM)
[18]
  MIC: 2 µg/mL (≈ 4.8 µM)
[19]
  MIC: > 0.12 µg/mL

## COc1ccc(-c2nc3ccc(-c4ccc5nc(-c6ccc(OC)cc6)[nH]c5c4)cc3[nH]2)cc1 [Example 8, 2,2'-Bis-(4-methoxy-phenyl)-6,6'-dibenzimidazole]
[1]
  MIC: 0.5 µg/mL (≈ 1.12 µM)
[2]
  MIC: > 128 µg/mL
[3]
  MIC: 8 µg/mL (≈ 17.9 µM)
[4]; E. coli 1527 E, DST agar, 35° C., 20 hours
  MIC: > 12 µg/mL
[5]; Escherichia coli, 25922, 20 h
  MIC: > 128 µg/mL
[6]
  MIC: 32 µg/mL (≈ 71.7 µM)
[7]
  MIC: 8 µg/mL (≈ 17.9 µM)
[8]; [24]
  MIC: 64 µg/mL (≈ 143 µM)
[9]
  MIC: > 128 µg/mL
[10]
  MIC: > 128 µg/mL
[11]; Enterococcus faecalis, 6, 20 h
  MIC: > 128 µg/mL
[12]
  MIC: > 128 µg/mL
[13]
  MIC: > 128 µg/mL
[14]; 20 h
  MIC: > 128 µg/mL
[15]
  MIC: > 128 µg/mL
[16]
  MIC: > 128 µg/mL
[17]
  MIC: 1 µg/mL (≈ 2.24 µM)
[18]
  MIC: 0.5 µg/mL (≈ 1.12 µM)
[19]
  MIC: ≤ 0.25 µg/mL

## CCOc1ccc(-c2nc3ccc(-c4ccc5nc(-c6ccc(OCC)cc6)[nH]c5c4)cc3[nH]2)cc1 [Example 9, 2,2'-Bis-(4-ethoxy-phenyl)-6,6'-dibenzimidazole]
[1]
  MIC: ≤ 0.5 µg/mL
[2]
  MIC: > 128 µg/mL
[3]
  MIC: 16 µg/mL (≈ 33.7 µM)
[4]; 1527E, 20 h
  MIC: > 128 µg/mL
[20]
  MIC: > 128 µg/mL
[5]; Escherichia coli, 25922, 20 h
  MIC: > 128 µg/mL
[6]
  MIC: > 128 µg/mL
[7]
  MIC: > 128 µg/mL
[8]; DC2, 20 h
  MIC: > 128 µg/mL
[9]
  MIC: > 128 µg/mL
[10]
  MIC: > 128 µg/mL
[11]; [25]
  MIC: 64 µg/mL (≈ 135 µM)
[12]
  MIC: > 128 µg/mL
[13]
  MIC: > 128 µg/mL
[14]; 20 h
  MIC: > 128 µg/mL
[15]
  MIC: > 128 µg/mL
[16]
  MIC: > 128 µg/mL
[17]
  MIC: 2 µg/mL (≈ 4.21 µM)
[18]
  MIC: ≤ 0.5 µg/mL
[19]
  MIC: 1 µg/mL (≈ 2.11 µM)

## c1coc(-c2nc3ccc(-c4ccc5nc(-c6ccco6)[nH]c5c4)cc3[nH]2)c1 [Example 10, 2,2'-Difuran-2-yl-6,6'-dibenzimidazole]
[2]
  MIC: > 128 µg/mL
[3]
  MIC: 8 µg/mL (≈ 21.8 µM)
[4]; 1527E, 20 h
  MIC: > 128 µg/mL
[5]; [23]
  MIC: > 128 µg/mL
[6]
  MIC: 0.5 µg/mL (≈ 1.36 µM)
[8]; [24]
  MIC: 1 µg/mL (≈ 2.73 µM)
[9]
  MIC: > 128 µg/mL
[10]
  MIC: > 128 µg/mL
[11]; Enterococcus faecalis, 6, 20 h
  MIC: > 128 µg/mL
[12]
  MIC: > 128 µg/mL
[13]
  MIC: > 128 µg/mL
[14]; P. aeroguinosa 3351, DST agar, 35° C., 20 hours
  MIC: > 129 µg/mL
[15]
  MIC: > 128 µg/mL
[16]
  MIC: > 128 µg/mL
[17]
  MIC: 4 µg/mL (≈ 10.9 µM)
[18]
  MIC: 2 µg/mL (≈ 5.46 µM)
[19]
  MIC: 0.25 µg/mL (≈ 0.682 µM)

## N#Cc1ccc(-c2nc3ccc(-c4ccc5nc(-c6ccc(O)cc6)[nH]c5c4)cc3[nH]2)cc1 [Example 12, 4-[2'-(4-Hydroxy-phenyl)-6,6'-dibenzimidazol-2-yl]-benzonitrile]
[1]
  MIC: 2 µg/mL (≈ 4.68 µM)
[2]
  MIC: > 128 µg/mL
[3]
  MIC: 1 µg/mL (≈ 2.34 µM)
[20]
  MIC: > 128 µg/mL
[5]; [23]
  MIC: > 128 µg/mL
[6]
  MIC: 32 µg/mL (≈ 74.9 µM)
[7]
  MIC: 2 µg/mL (≈ 4.68 µM)
[8]; [24]
  MIC: 8 µg/mL (≈ 18.7 µM)
[9]
  MIC: > 128 µg/mL
[10]
  MIC: > 128 µg/mL
[11]; [25]
  MIC: 4 µg/mL (≈ 9.36 µM)
[12]
  MIC: > 128 µg/mL
[13]
  MIC: > 128 µg/mL
[14]; 20 h
  MIC: > 128 µg/mL
[15]
  MIC: > 128 µg/mL
[21]
  MIC: 4 µg/mL (≈ 9.36 µM)
[22]
  MIC: 2 µg/mL (≈ 4.68 µM)
[17]
  MIC: 1 µg/mL (≈ 2.34 µM)
[18]
  MIC: 2 µg/mL (≈ 4.68 µM)
[19]
  MIC: 0.25 µg/mL (≈ 0.585 µM)
